From patent US20230236170A1, “REACTIVE AFFINITY PROBE-I[…] PLATFORM” (Jnana Therapeutics Inc., priority 2019, published 2023)

What was measured:
[1] = biological target: T1, creatine transporter SLC6A8 (Homo sapiens, UniProt P48029); test: creatine uptake assay after photo-crosslinking of reactive affinity probe; assay type: cell-based; conditions: 100 μM JN-1724 with or without 1 mM β-GPA, 30 minutes, 6 minutes 365 nm; FIG. 3
T1 construct: host or cells: 'Cells', not specified
T1 sequence (P48029 1-635): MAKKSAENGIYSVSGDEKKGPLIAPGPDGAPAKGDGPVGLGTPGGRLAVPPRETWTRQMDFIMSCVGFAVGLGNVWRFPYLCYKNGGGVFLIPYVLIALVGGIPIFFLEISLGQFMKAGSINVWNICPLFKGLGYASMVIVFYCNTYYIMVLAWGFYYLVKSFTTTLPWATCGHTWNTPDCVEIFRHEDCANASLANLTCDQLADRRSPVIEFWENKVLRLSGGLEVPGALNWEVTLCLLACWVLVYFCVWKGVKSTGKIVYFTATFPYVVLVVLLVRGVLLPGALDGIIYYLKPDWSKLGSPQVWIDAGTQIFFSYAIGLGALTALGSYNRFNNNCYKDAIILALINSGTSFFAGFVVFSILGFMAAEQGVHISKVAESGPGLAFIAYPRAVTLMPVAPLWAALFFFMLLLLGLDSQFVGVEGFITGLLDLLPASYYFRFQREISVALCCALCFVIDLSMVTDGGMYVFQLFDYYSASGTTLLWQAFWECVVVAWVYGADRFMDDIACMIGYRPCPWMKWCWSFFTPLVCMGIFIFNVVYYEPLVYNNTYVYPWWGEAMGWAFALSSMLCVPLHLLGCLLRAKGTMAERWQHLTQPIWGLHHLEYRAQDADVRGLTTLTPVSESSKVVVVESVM
Procedure: Cells were dosed for 30 minutes with 100 μM JN-1724 with or without 1 mM β-GPA and then irradiated for 6 minutes with 365 nm light. Cells were washed and the residual transport activity of SLC6A8 was measured via a creatine uptake assay.
RAPID identifies orthosteric and allosteric ligands as starting points or probes for target occupancy. The extent of covalent modification of the creatine transporter by a subset of the RAP library is highly reproducible (FIG. 2A). Screen of 2000 RAPs against the creatine transporter SLC6A8±the substrate analog guanidinoproprionic acid (GPA) identifies substrate-sensitive binder (FIG. 2B). Dots that fall off-diagonal are either substrate-competitive or substrate-cooperative. Two RAPs identified from the screen show dose-dependent inhibition or enhancement of covalent modification of the target as a function of the concentration of GPA (FIG. 2C).
A 30 minute 100 μM dose of JN-1724 followed by 6 minutes of cross-linking at 365 nm is enough to inhibit SLC6A8 transport of creatine to 5.7% of normal transport. […] Cells were lysed; biotin was clicked on; and biotinylated proteins were affinity-purified with streptavidin, digested with trypsin, and identified by tandem mass spectrometry with TMT quantification. […]

[2] = biological target: T2, SLC6A8 (Homo sapiens, UniProt P48029); test: target engagement by mass spectrometry of the adductome (streptavidin enrichment, TMT quantification); assay type: binding; conditions: co-dosing 1 mM β-GPA with 20 μM JN-1724, 30 minutes, 6 minutes 365 nm
T2 construct: host or cells: 'Cells', not specified
T2 sequence (P48029 1-635): T1 sequence (P48029 1-635)
Procedure: Cells were dosed for 30 minutes with 20 μM JN-1724 with or without 1 mM β-GPA and then irradiated for 6 minutes with 365 nm light. Cells were lysed; biotin was clicked on; and biotinylated proteins were affinity-purified with streptavidin, digested with trypsin, and identified by tandem mass spectrometry with TMT quantification. SLC6A8 (dot pointed at with arrow) was one of the proteins identified and co-dosing with 1 mM β-GPA reduced the level of enrichment by 80%.
A 30 minute 100 μM dose of JN-1724 followed by 6 minutes of cross-linking at 365 nm is enough to inhibit SLC6A8 transport of creatine to 5.7% of normal transport. To confirm target engagement by unbiased mass spectrometry of the adductome, Cells were dosed for 30 minutes with 20 μM JN-1724 with or without 1 mM β-GPA and then irradiated for 6 minutes with 365 nm light. Cells were lysed; biotin was clicked on; and biotinylated proteins were affinity-purified with streptavidin, digested with trypsin, and identified by tandem mass spectrometry with TMT quantification. SLC6A8 (dot pointed at with arrow) was one of the proteins identified and co-dosing with 1 mM β-GPA reduced the level of enrichment by 80% (FIG. 4).

## N=C(N)NCCC(=O)O [β-GPA, β-guanidinoproprionic acid]
[1]
  effect on residual transport activity of SLC6A8: protection
[2]
  reduction of the level of enrichment of SLC6A8: 80%
